In patent US20210330611A1, “THERAPY FOR NEUROLOGICAL DISEASES/DISORDERS” (priority 2020, published 2021):
Where a name gives a salt, the structure may show the parent alone. Read-outs that look alike come from different tables or passages of the source.

How the values were obtained:
[1] = system: fibrin-induced microglia activation; assay: Image-based assay of fibrin-induced microglia activation (HTS and dose response); assay type: cell-based, rat; conditions: for inhibition at 10 µM / IC50: Rattus norvegicus, Microglia; for inhibition at 10 µM: read-out: Fibrin % inhibition
[2] = system: fibrin- and LPS-induced microglia activation; assay: cells; assay type: cell-based, rat; conditions: for inhibition at 10 µM: Rattus norvegicus, Microglia
[3] = system: LPS-induced microglia activation; assay: Image-based assay of LPS-induced microglia activation (HTS and dose response); assay type: cell-based, rat; conditions: for inhibition at 10 µM / IC50: Rattus norvegicus, Microglia; for inhibition at 10 µM: read-out: LPS % inhibition
[4] = primary microglia HTS, fibrin stimulation, increased cell size (>800 μm^2) as marker of activation
[5] = quadrant by fibrin and LPS inhibition in HTS of 1907 compounds
[6] = 48 h, primary microglia HTS, LPS stimulation, increased cell size (>800 μm^2) as marker of activation
[7] = primary microglia HTS, fibrin stimulation, compounds at 10 μM
[8] = primary microglia HTS, LPS stimulation, compounds at 10 μM
[9] = classification by fibrin and LPS inhibition, HTS at 10 μM

Question: `C[C@@H]1C[C@@H]([C@H](O)CC2CC(=O)NC(=O)C2)C(=O)[C@@H](C)C1` [Cycloheximide] was tested. Which “LPS % cell toxicity” value (primary rat microglia; rat) did it give?
Answer: Its value is 45%.

Question: What about the inhibition at 10 µM [1, 4] of the same compound?
Answer: Its inhibition at 10 µM is 108%.

Question: What about the “Quadrant (FIG. 5b)” value [2, 5] of the same compound?
Answer: Its value is “Q2”.

Question: What about the inhibition at 10 µM [3, 6] of the same compound?
Answer: Its inhibition at 10 µM is 123%.

Question: What does the source list for `CC(=O)O[C@H]1C[C@@H]2CC[C@@H]3[C@H](CC[C@@]4(C)[C@H]3C[C@H]([N+]3(C)CCCCC3)[C@@H]4OC(C)=O)[C@@]2(C)C[C@@H]1[N+]1(C)CCCCC1` [Pancuronium Bromide]?
Answer: LPS % cell toxicity (primary rat microglia; rat): 0%; Fibrin % inhibition [1, 4]: 9%; Quadrant (FIG. 5b) [2, 5]: Q4; LPS % inhibition ([3]; primary microglia HTS, LPS stimulation, increased cell size (>800 μm^2) as marker of activation): 11%

Question: For `COCCOC(=O)C1=C(C)NC(C)=C(C(=O)OC(C)C)C1c1cccc([N+](=O)[O-])c1` (stereo not shown) [Nimodipine], which “LPS % cell toxicity” value (primary rat microglia; rat) is on record?
Answer: The value was 0%.

Question: What about the inhibition at 10 µM [1, 4] of the same compound?
Answer: Its inhibition at 10 µM is -6%.

Question: And the “Quadrant (FIG. 5b)” value [2, 5]?
Answer: The value was “Q4”.

Question: What about the inhibition at 10 µM [3, 6] of the same compound?
Answer: Its inhibition at 10 µM is 2%.

Question: How did the “LPS % cell toxicity” value (primary rat microglia; rat) turn out when `NC(=O)c1ncn([C@@H]2O[C@H](CO)[C@@H](O)[C@H]2O)n1` [Ribavirin, reference compound] was run?
Answer: The value was 3%.

Question: What about the IC50 ([1]; 48 h, read-out: Fibrin IC50) of the same compound?
Answer: The IC50 was 1 µM.

Question: And the inhibition at 10 µM [1]?
Answer: The inhibition at 10 µM was 102%.

Question: What about the IC50 ([1]; read-out: Fibrin IC50 (uM)) of the same compound?
Answer: The IC50 was 1 µM.

Question: What about the IC50 ([1]; read-out: Fibrin IC50 (uM) (Suppl. Table 7)) of the same compound?
Answer: Its IC50 is 1 µM.

Question: What about the “Quadrant (FIG. 5b)” value [2] of the same compound?
Answer: Its value is “Q2”.

Question: What about the inhibition at 10 µM ([2]; read-out: Cherry-picked Hit (Suppl. Table 7)) of the same compound?
Answer: The inhibition at 10 µM was over 50%.

Question: And the inhibition at 10 µM ([2]; read-out: Hit)?
Answer: Its inhibition at 10 µM is over 50%.

Question: And the inhibition at 10 µM ([3]; 48 h)?
Answer: The inhibition at 10 µM was 107%.

Question: And the IC50 ([3]; 48 h, read-out: LPS IC50)?
Answer: The IC50 was 2 µM.

Question: What about the IC50 ([3]; read-out: LPS IC50 (uM)) of the same compound?
Answer: Its IC50 is 2 µM.

Question: And the IC50 ([3]; read-out: LPS IC50 (uM) (Suppl. Table 7))?
Answer: The IC50 was 2 µM.

Question: How did the “LPS % cell toxicity” value (primary rat microglia; rat) turn out when `CCOC(=O)C1=C(COCCN)NC(C)=C(C(=O)OC)C1c1ccccc1Cl` (stereo not shown) [Amlodipine] was run?
Answer: Its value is 2%.

Question: And the inhibition at 10 µM [1, 7]?
Answer: The inhibition at 10 µM was -17%.

Question: What about the inhibition at 10 µM [1, 4] of the same compound?
Answer: Its inhibition at 10 µM is -29%.

Question: And the “Quadrant (FIG. 5b)” value [2, 5]?
Answer: Its value is “Q1”.

Question: What about the “Quadrant (FIG. 5b)” value ([2]; quadrant by fibrin and LPS inhibition, HTS at 10 μM) of the same compound?
Answer: Its value is “Q4”.

Question: What about the inhibition at 10 µM [3, 6] of the same compound?
Answer: The inhibition at 10 µM was 59%.

Question: What about the inhibition at 10 µM [3, 8] of the same compound?
Answer: The inhibition at 10 µM was 36%.

Question: Which “LPS % cell toxicity” value (primary rat microglia; rat) does the source give for `CC1(C)[C@@H](O)CC[C@]2(C)[C@H]3C(=O)C=C4[C@@H]5C[C@@](C)(C(=O)O)CC[C@]5(C)CC[C@@]4(C)[C@]3(C)CC[C@@H]12` [Enoxolone] here?
Answer: The value was 0%.

Question: And the inhibition at 10 µM [1, 7]?
Answer: The inhibition at 10 µM was -40%.

Question: What about the “Quadrant (FIG. 5b)” value [2, 9] of the same compound?
Answer: Its value is “Q4”.

Question: And the inhibition at 10 µM [3, 8]?
Answer: The inhibition at 10 µM was 7%.

Question: With `O=C(O[C@@H]1C[C@@H]2C[C@H]3C[C@H](C1)N2CC3=O)c1c[nH]c2ccccc12` [Dolasetron] as the compound, how does the “LPS % cell toxicity” value (primary rat microglia; rat) read?
Answer: Its value is 0%.

Question: And the inhibition at 10 µM [1, 7]?
Answer: Its inhibition at 10 µM is -19%.

Question: And the “Quadrant (FIG. 5b)” value [2, 9]?
Answer: The value was “Q4”.

Question: And the inhibition at 10 µM [3, 8]?
Answer: The inhibition at 10 µM was -3%.

Question: For `Cn1c(=O)c2c(ncn2C)n(C)c1=O` [Caffeine], which “LPS % cell toxicity” value (primary rat microglia; rat) is on record?
Answer: The value was 0%.

Question: What about the inhibition at 10 µM [1] of the same compound?
Answer: Its inhibition at 10 µM is 2%.

Question: What about the “Quadrant (FIG. 5b)” value [2] of the same compound?
Answer: The value was “Q4”.

Question: And the inhibition at 10 µM [3]?
Answer: The inhibition at 10 µM was 10%.

Question: Which results are given for `NC(=O)NO` [Hydroxyurea]?
Answer: LPS % cell toxicity (primary rat microglia; rat): 1%; inhibition at 10 µM ([1]; primary microglia HTS, fibrin stimulation, activation = cell size >800 μm2): 1%; Quadrant (FIG. 5b) [2, 5]: Q4; inhibition at 10 µM ([3]; 48 h, primary microglia HTS, LPS stimulation, activation = cell size >800 μm2): 25%

Question: What does the source list for `OCCN(CCO)c1nc(N2CCCCC2)c2nc(N(CCO)CCO)nc(N3CCCCC3)c2n1` [Dipyridamole]?
Answer: LPS % cell toxicity (primary rat microglia; rat): 0%; inhibition at 10 µM [1]: 11%; Quadrant (FIG. 5b) [2]: Q4; inhibition at 10 µM [3]: 6%

Question: How did the “LPS % cell toxicity” value (primary rat microglia; rat) turn out when `CSc1ccc2c(c1)N(CCC1CCCCN1C)c1ccccc1S2` (stereo not shown) [Thioridazine hydrochloride, reference compound] was run?
Answer: Its value is 73%.

Question: And the inhibition at 10 µM [1]?
Answer: The inhibition at 10 µM was 116%.

Question: And the Activity [2]?
Answer: The Activity was “fib/LPS”.

Question: What about the “Quadrant (FIG. 5b)” value [2] of the same compound?
Answer: The value was “Q2”.

Question: What about the inhibition at 10 µM ([3]; 48 h) of the same compound?
Answer: The inhibition at 10 µM was 118%.

Question: How did the “LPS % cell toxicity” value (primary rat microglia) turn out when `CCCc1nn(C)c2c(=O)[nH]c(-c3cc(S(=O)(=O)N4CCN(C)CC4)ccc3OCC)nc12` [Sildenafil, Sildenafil Citrate] was run?
Answer: The value was 0%.

Question: And the Fibrin % inhibition ([1]; primary microglia HTS, fibrin stimulation, cell size >800 μm2 as marker of activation)?
Answer: The Fibrin % inhibition was 22%.

Question: What about the “Quadrant (FIG. 5b)” value ([2]; classification by fibrin and LPS inhibition in HTS) of the same compound?
Answer: The value was “Q4”.

Question: And the LPS % inhibition [3]?
Answer: The LPS % inhibition was 20%.

Question: For `CNC[C@H](O)c1ccc(O)c(O)c1.O=C(O)C(O)C(O)C(=O)O`, which “LPS % cell toxicity” value (primary rat microglia) is on record?
Answer: Its value is 0%.

Question: What about the Fibrin % inhibition ([1]; 10 µM) of the same compound?
Answer: Its Fibrin % inhibition is 35%.

Question: What about the “Quadrant (FIG. 5b)” value [2] of the same compound?
Answer: Its value is “Q4”.

Question: And the LPS % inhibition ([3]; 10 µM)?
Answer: Its LPS % inhibition is 19%.

Question: What does the source list for `OC(CCN1CCCCC1)(c1ccccc1)C1CC2C=CC1C2` (stereo not shown) [Biperiden]?
Answer: LPS % cell toxicity (primary rat microglia; rat): 1%; inhibition at 10 µM ([1]; primary HTS, 10 μM, fibrin-stimulated primary microglia): 2%; Quadrant (FIG. 5b) ([2]; primary HTS, 10 μM): Q4; inhibition at 10 µM ([3]; primary HTS, 10 μM, LPS-stimulated primary microglia): 17%

Question: Which “LPS % cell toxicity” value (primary rat microglia; rat) does the source give for `CC(C)NCC(O)COc1cccc2ccccc12` (stereo not shown) [Propranolol] here?
Answer: The value was 0%.

Question: And the Fibrin % inhibition [1]?
Answer: Its Fibrin % inhibition is −30%.

Question: And the “Quadrant (FIG. 5b)” value [2]?
Answer: The value was “Q4”.

Question: And the inhibition at 10 µM ([3]; 48 h)?
Answer: Its inhibition at 10 µM is 2%.

Question: How did the “LPS % cell toxicity” value (primary rat microglia; rat) turn out when `C#C[C@]1(O)CC[C@H]2[C@@H]3CCC4=CC(=O)CC[C@]4(C)[C@H]3CC[C@@]21C` [Ethisterone] was run?
Answer: Its value is 1%.

Question: And the inhibition at 10 µM [1, 7]?
Answer: The inhibition at 10 µM was -5%.

Question: And the “Quadrant (FIG. 5b)” value [2, 9]?
Answer: Its value is “Q4”.

Question: What about the inhibition at 10 µM [3, 8] of the same compound?
Answer: Its inhibition at 10 µM is 13%.
